# Where two headings read alike, the source gives them in different places.
# Columns and labels:
# [1] = system: HORSS: barley, including spring and winter (Hordeum vulgare); assay: Post-emergent Test III, herbicidal activity in wheat and barley; format: in vivo; conditions: for pest or weed control at 35 g/ha / pest or weed control at 70 g/ha: Hordeum vulgare, post-emergence, 504 h; for pest or weed control at 35 g/ha: 35 g ai/ha; for pest or weed control at 70 g/ha: 70 g ai/ha; for GR20 HORSS: probit analysis
# In short: (§1)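 Plants at the second to third true-leaf stage, grown in a greenhouse at about 18/17 °C with a 14 h photoperiod, were sprayed post-emergence at 187 L/ha with the high rate and ½× to 1/16× serial dilutions in an acetone/DMSO/crop-oil/surfactant carrier. Injury was rated visually at 21 d on a 0–100% scale, and GR20–GR90 were derived by probit analysis.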
# [2] = system: KCHSC: kochia (Kochia scoparia); assay: as above; format: in vivo; conditions: for pest or weed control at 35 g/ha / pest or weed control at 70 g/ha: Bassia scoparia, post-emergence, 504 h; for pest or weed control at 35 g/ha: 35 g ai/ha; for pest or weed control at 70 g/ha: 70 g ai/ha; for GR50 KCHSC / GR80 KCHSC: probit analysis; for GR50 KCHSC: dose for 50 percent growth reduction; for GR80 KCHSC: dose for 80 percent growth reduction
# In short: as §1
# [3] = system: MATSS: scented mayweed (Matricaria chamomilla), pineappleweed (Matricaria matricarioides); assay: as above; format: in vivo; conditions: 21 days after application
# In short: as §1
# [4] = system: TRZSS: wheat, including spring and winter (Triticum aestivum); assay: as above; format: in vivo; conditions: for pest or weed control at 35 g/ha / pest or weed control at 70 g/ha: Triticum aestivum, post-emergence, 504 h; for pest or weed control at 35 g/ha: 35 g ai/ha; for pest or weed control at 70 g/ha: 70 g ai/ha; for GR20 TRZSS: probit analysis
# In short: as §1
# [5] = as above; format: in vivo, Lolium multiflorum, Lolium rigidum; conditions: Lolium multiflorum, post-emergence, 504 h, Table 9, post-emergent, 21 d, read-out: Visual Growth Reduction (%) 21 Days After Application LOLSS; for pest or weed control at 35 g/ha: 35 g ai/ha; for pest or weed control at 70 g/ha: 70 g ai/ha
# In short: as §1
# [6] = system: APESV: bentgrass (Apera spica-venti); assay: as above; format: in vivo; conditions: Table 9, 21 d; for pest or weed control at 35 g/ha / pest or weed control at 70 g/ha: Apera spica-venti, post-emergence, 504 h, post-emergent, read-out: Visual Growth Reduction (%) 21 Days After Application APESV; for pest or weed control at 35 g/ha: 35 g ai/ha; for pest or weed control at 70 g/ha: 70 g ai/ha; for GR50 APESV: dose for 50 percent growth reduction; for GR50 APESV / GR80 APESV: probit analysis; for GR80 APESV: dose for 80 percent growth reduction
# In short: as §1
# [7] = system: LOLSS: ryegrass including, Italian ryegrass (Lolium multiflorum), rigid ryegrass (Lolium rigidum), annual ryegrass (Lolium multiflorum subsp. Gaudini); assay: as above; format: in vivo; conditions: Table 9, probit analysis, 21 d; for GR50 LOLSS: dose for 50 percent growth reduction; for GR80 LOLSS: dose for 80 percent growth reduction
# In short: as §1
# [8] = system: SETVI: green foxtail (Setaria viridis); assay: as above; format: in vivo; conditions: Table 9, 21 d; for pest or weed control at 35 g/ha / pest or weed control at 70 g/ha: Setaria viridis, post-emergence, 504 h, post-emergent, read-out: Visual Growth Reduction (%) 21 Days After Application SETVI; for pest or weed control at 35 g/ha: 35 g ai/ha; for pest or weed control at 70 g/ha: 70 g ai/ha; for GR50 SETVI: dose for 50 percent growth reduction; for GR50 SETVI / GR80 SETVI: probit analysis; for GR80 SETVI: dose for 80 percent growth reduction
# In short: as §1
# [9] = 21 days after application, read-out: Visual Gorowth Reduction (%) 21 days After Application HORSS
# [10] = dose for 20 percent growth reduction (crop), 21 days after application
# [11] = 21 days after application, read-out: Visual Gorowth Reduction (%) 21 days After Application KCHSC
# [12] = 21 days after application, read-out: Visual Gorowth Reduction (%) 21 days After Application TRZSS
# [13] = Table 9, post-emergent, 21 d, read-out: Visual Growth Reduction (%) 21 Days After Application HORSS
# [14] = Table 9, dose for 20 percent growth reduction, 21 d
# [15] = Table 9, post-emergent, 21 d, read-out: Visual Growth Reduction (%) 21 Days After Application KCHSC
# [16] = Table 9, post-emergent, 21 d, read-out: Visual Growth Reduction (%) 21 Days After Application TRZSS
SMILES,pest or weed control at 35 g/ha [5],pest or weed control at 70 g/ha [5],pest or weed control at 35 g/ha [6],pest or weed control at 70 g/ha [6],GR50 APESV [6],GR80 APESV [6],"pest or weed control at 35 g/ha [1, 13]","pest or weed control at 70 g/ha [1, 13]","GR20 HORSS [1, 14]","pest or weed control at 35 g/ha [2, 15]","pest or weed control at 70 g/ha [2, 15]","GR50 KCHSC ([2]; Table 9, 21 d)","GR80 KCHSC ([2]; Table 9, 21 d)",GR50 LOLSS [7],GR80 LOLSS [7],pest or weed control at 35 g/ha [8],pest or weed control at 70 g/ha [8],GR50 SETVI [8],GR80 SETVI [8],"GR20 TRZSS [4, 14]",further results
COC(=O)c1nc(-c2ccc(Br)c(F)c2)c(F)c(N)c1Cl [Compound 49],–,–,–,–,–,–,–,–,–,–,–,–,–,–,–,–,–,–,–,–,"pest or weed control at 35 g/ha [1, 9]: 75 to 84%; pest or weed control at 70 g/ha [1, 9]: 85 to 94%; GR20 HORSS [1, 10]: 1 g ai/ha; pest or weed control at 35 g/ha [2, 11]: 85 to 94%; pest or weed control at 70 g/ha [2, 11]: 85 to 94%; GR50 KCHSC ([2]; 21 days after application): 4 g ai/ha; GR80 KCHSC ([2]; 21 days after application): 18 g ai/ha; pest or weed control at 35 g/ha ([3]; Matricaria chamomilla, post-emergence, 504 h, 35 g ai/ha, read-out: Visual Gorowth Reduction (%) 21 days After Application MATSS): 60 to 74%; pest or weed control at 70 g/ha ([3]; Matricaria chamomilla, post-emergence, 504 h, 70 g ai/ha, read-out: Visual Gorowth Reduction (%) 21 days After Application MATSS): 75 to 84%; GR50 MATSS ([3]; probit analysis, dose for 50 percent growth reduction): 15 g ai/ha; GR80 MATSS ([3]; probit analysis, dose for 80 percent growth reduction): 93 g ai/ha; pest or weed control at 35 g/ha [4, 12]: 75 to 84%; pest or weed control at 70 g/ha [4, 12]: 85 to 94%; GR20 TRZSS [4, 10]: 1 g ai/ha"
"Nc1cc(-c2ccc(C(F)(F)F)c(F)c2F)nc(C(=O)O)c1Cl [Compound 172, 4-amino-3-chloro-6-(2,3-difluoro-4-(trifluoromethyl)phenyl)picolinic acid]",0 to 29%,0 to 29%,30 to 44%,60 to 74%,53 g ai/ha,124 g ai/ha,60 to 74%,60 to 74%,3 g ai/ha,60 to 74%,60 to 74%,38 g ai/ha,73 g ai/ha,>140 g ai/ha,>140 g ai/ha,60 to 74%,75 to 84%,25 g ai/ha,56 g ai/ha,1 g ai/ha,"pest or weed control at 35 g/ha [4, 16]: 75 to 84%; pest or weed control at 70 g/ha [4, 16]: 75 to 84%"
COc1c(N)nc(-c2ccc(C(F)(F)F)c(F)c2F)nc1C(=O)O [Compound 76],30 to 44%,45 to 59%,75 to 84%,85 to 94%,27 g ai/ha,52 g ai/ha,60 to 74%,60 to 74%,6 g ai/ha,0 to 29%,45 to 59%,74 g ai/ha,132 g ai/ha,53 g ai/ha,133 g ai/ha,45 to 59%,60 to 74%,42 g ai/ha,87 g ai/ha,4 g ai/ha,"pest or weed control at 35 g/ha [4, 16]: 75 to 84%; pest or weed control at 70 g/ha [4, 16]: 85 to 94%"
